Laboratory results published in ChEMBL document CHEMBL1132079, “Combined NK1 and NK2 tachykinin receptor antagonists: synthesis and structure-activity relationships of novel oxazolidine analogues” (Bioorg Med Chem Lett, 1999).
pIC50: −log10 of the molar value.

Tests used:
Substance-K receptor = target: T1, Substance-K receptor (Cavia porcellus, UniProt Q64077); assay: Inhibitory activity against Neurokinin 2 (NK2) receptor from guinea pig ileum; type: tissue-based
T1 sequence (Q64077 whole entry): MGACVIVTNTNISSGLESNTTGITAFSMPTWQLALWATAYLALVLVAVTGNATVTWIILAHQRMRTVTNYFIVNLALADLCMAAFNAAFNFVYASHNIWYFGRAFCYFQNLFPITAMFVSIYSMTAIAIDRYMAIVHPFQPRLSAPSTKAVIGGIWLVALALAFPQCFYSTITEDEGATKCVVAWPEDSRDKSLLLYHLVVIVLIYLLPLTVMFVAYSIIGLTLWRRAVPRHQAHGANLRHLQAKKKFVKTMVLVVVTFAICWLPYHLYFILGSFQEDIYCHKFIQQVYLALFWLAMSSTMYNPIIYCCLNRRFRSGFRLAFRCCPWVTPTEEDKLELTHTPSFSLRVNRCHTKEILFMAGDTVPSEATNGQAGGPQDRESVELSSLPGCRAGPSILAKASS

Substance-P receptor = Substance-P receptor (Cavia porcellus, UniProt P30547); assay: Inhibitory activity against Neurokinin 1 (NK1) receptor from guinea pig lung
Chain of Substance-P receptor (P30547 whole entry): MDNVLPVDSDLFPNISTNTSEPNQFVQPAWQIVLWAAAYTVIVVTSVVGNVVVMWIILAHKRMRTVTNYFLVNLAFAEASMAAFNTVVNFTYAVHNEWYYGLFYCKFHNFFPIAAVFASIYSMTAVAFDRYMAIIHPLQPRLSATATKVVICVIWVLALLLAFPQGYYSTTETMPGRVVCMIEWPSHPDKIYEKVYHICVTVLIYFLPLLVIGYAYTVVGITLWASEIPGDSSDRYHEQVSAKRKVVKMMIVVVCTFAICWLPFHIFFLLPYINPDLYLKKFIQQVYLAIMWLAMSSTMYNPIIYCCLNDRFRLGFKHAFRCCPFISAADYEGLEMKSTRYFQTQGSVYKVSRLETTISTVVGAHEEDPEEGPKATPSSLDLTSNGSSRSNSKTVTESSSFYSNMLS

Cavia porcellus [1] = assay: In vivo inhibitory activity against SP-induced vascular hyperpermeability in guinea pig after iv administration; type: functional; details: read-out: ID50 (the source's name)
Cavia porcellus [2] = assay: In vivo inhibitory activity against [Nle10] ]-NKA[4-10]-induced bronchoconstriction in guinea pig after iv administration; type: functional; details: read-out: ID50 (the source's name)

| SMILES | pIC50 (Substance-K receptor) | pIC50 (Substance-P receptor) | ED50 (Cavia porcellus [1]) [mg/kg] | ED50 (Cavia porcellus [2]) [mg/kg] |
| --- | --- | --- | --- | --- |
| COc1cc(C(=O)N2CO[C@](CCN3CCC4(CC3)NC(=O)Cc3ccccc34)(c3ccc(Cl)cc3)C2)cc(OC)c1OC | 8.29 | 7.08 | – | – |
| COc1cc(C(=O)N2CO[C@](CCN3CCC4(CC3)NC(=O)Cc3ccccc34)(c3ccc(F)cc3)C2)cc(OC)c1OC | 7.99 | 7.32 | – | – |
| NC(=O)C1(c2ccccc2)CCN(CC[C@@]2(c3ccc(Cl)c(Cl)c3)CN(C(=O)c3cc(C(F)(F)F)cc(C(F)(F)F)c3)CO2)CC1 | 6.80 | 6.84 | – | – |
| COc1cc(C(=O)N2CO[C@](CCN3CCC4(CC3)NC(=O)Cc3ccccc34)(c3ccc(F)c(F)c3)C2)cc(OC)c1OC | 7.96 | 7.35 | – | – |
| COc1cc(C(=O)N2CO[C@](CCN3CCC(C(N)=O)(c4ccccc4)CC3)(c3ccc(Cl)cc3)C2)cc(OC)c1OC | 6.48 | 7.35 | – | – |
| COc1cc(C(=O)N2CO[C@](CCN3CCC(C(N)=O)(c4ccccc4)CC3)(c3ccc(F)c(F)c3)C2)cc(OC)c1OC | 6.48 | 7.79 | – | – |
| COc1cc(C(=O)N2CO[C@](CCN3CCC(C(=O)N(C)C)(c4ccccc4)CC3)(c3ccc(Cl)c(Cl)c3)C2)cc(OC)c1OC | 8.09 | 7.60 | – | – |
| COc1cc(C(=O)N2CO[C@](CCN3CCC4(CC3)c3ccccc3C[S+]4[O-])(c3ccc(Cl)c(Cl)c3)C2)cc(OC)c1OC (some centres not stated) | 7.94 | 7.99 | 0.025 | 0.074 |
| COc1cc(C(=O)N2CO[C@](CCCN3CCC(C(N)=O)(c4ccccc4)CC3)(c3ccc(Cl)c(Cl)c3)C2)cc(OC)c1OC | < 5.82 | 7.46 | – | – |
| COc1cc(C(=O)N2CO[C@](CCN3CCC4(CC3)NC(=O)Cc3ccccc34)(c3ccc(Cl)c(Cl)c3)C2)cc(OC)c1OC | 8.34 | 7.74 | – | – |
| COc1cc(C(=O)N2CO[C@](CCN3CCC(C(N)=O)(c4ccccc4)CC3)(c3ccc(F)cc3)C2)cc(OC)c1OC | 6.13 | 7.34 | – | – |
| COc1cc(C(=O)N2CO[C@](CCN3CCC(C(=O)N4CCCC4)(c4ccccc4)CC3)(c3ccc(Cl)c(Cl)c3)C2)cc(OC)c1OC | 7.04 | 7.95 | – | – |
| COc1cc(C(=O)N2CO[C@](CCN3CCC4(CC3)c3ccccc3C[S+]4[O-])(c3ccc(F)c(F)c3)C2)cc(OC)c1OC (some centres not stated) | 7.52 | 7.59 | – | – |
| COc1cc(C(=O)N2CO[C@](CCN3CCC(C(=O)N(C)C)(c4ccccc4)CC3)(c3ccc(Cl)cc3)C2)cc(OC)c1OC | 8.13 | 7.10 | – | – |
| COc1cc(C(=O)N2CO[C@](CCN3CCC(C(N)=O)(c4ccccc4)CC3)(c3ccc(Cl)c(Cl)c3)C2)cc(OC)c1OC | 6.85 | 8.02 | – | – |
